# Patent publication US10294202B2, “Pyrrolidinones as herbicides” (FMC Corporation, priority 2013, dated 2019)
# How the values were obtained:
# [1] = tested on: ragweed; assay: Test C pre-/postemergence herbicide test; assay type: in vivo, Ambrosia elatior
# Procedure, shortened: (§1)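 Pre-emergence: seeds sown in loam/sand blend and treated with compound in surfactant-containing solvent. Post-emergence: plants at 2–18 cm (1- to 4-leaf stage) in peat-based medium sprayed with the same formulation. Visual rating versus controls after 13–15 days in greenhouse, scale 0 (no effect) to 100 (complete control).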
# [2] = tested on: blackgrass; assay: Test C pre-/postemergence herbicide test; assay type: in vivo, Alopecurus myosuroides
# Procedure, shortened: as §1
# [3] = tested on: rice; assay: Test B flooded paddy test; assay type: in vivo, Oryza sativa; details: 500 g ai/ha, Flood; scale of 0 to 100 where 0 is no effect and 100 is complete control
# Procedure, shortened: (§2)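 In-water application to pots flooded 3 cm deep, plants at 2-leaf stage. Held in greenhouse 13–15 days at constant flood depth. Scored 0–100 by eye against controls.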
# [4] = tested on: wheat (winter wheat); assay: Test C pre-/postemergence herbicide test; assay type: in vivo, Triticum aestivum
# Procedure, shortened: as §1
# [5] = tested on: sedge, umbrella; assay: Test B flooded paddy test; assay type: in vivo, Cyperus difformis; details: 500 g ai/ha, Flood; scale of 0 to 100 where 0 is no effect and 100 is complete control
# Procedure, shortened: as §2
# [6] = tested on: pigweed; assay: Test C pre-/postemergence herbicide test; assay type: in vivo, Amaranthus retroflexus
# Procedure, shortened: as §1
# [7] = tested on: johnsongrass; assay: Test C pre-/postemergence herbicide test; assay type: in vivo, Sorghum halepense
# Procedure, shortened: as §1
# [8] = tested on: wheat; assay: Test A pre-/postemergence herbicide test; assay type: in vivo, Triticum aestivum; details: Postemergence
# Procedure, shortened: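 Seeds in loam–sand blend received preemergence directed soil spray; separately, plants 2–10 cm at one- to two-leaf stage received postemergence spray, both with test chemicals in non-phytotoxic solvent with surfactant. After ~10 days in greenhouse, injury rated visually against untreated controls, 0 (no effect) to 100 (complete control).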
# [9] = tested on: velvetleaf; assay: Test C pre-/postemergence herbicide test; assay type: in vivo, Abutilon theophrasti
# Procedure, shortened: as §1
# [10] = tested on: barnyardgrass; assay: Test B flooded paddy test; assay type: in vivo, Echinochloa crus-galli; details: 500 g ai/ha, Flood; scale of 0 to 100 where 0 is no effect and 100 is complete control
# Procedure, shortened: as §2
# [11] = tested on: crabgrass, large; assay: Test C pre-/postemergence herbicide test; assay type: in vivo, Digitaria sanguinalis
# Procedure, shortened: as §1
# [12] = tested on: oilseed rape; assay: Test C pre-/postemergence herbicide test; assay type: in vivo, Brassica napus
# Procedure, shortened: as §1
# [13] = Postemergence, 31 g ai/ha, scale 0 to 100 (0 no effect, 100 complete control)
# [14] = Postemergence, 62 g ai/ha, scale 0 (no effect) to 100 (complete control)
# [15] = Postemergence, 125 g ai/ha, scale 0 to 100 (0 no effect, 100 complete control)
# [16] = Postemergence, 250 g ai/ha, scale 0 to 100 (0 no effect, 100 complete control)
# [17] = Preemergence, 62 g ai/ha, scale 0 to 100 (0 no effect, 100 complete control)
# [18] = Preemergence, 125 g ai/ha, scale 0 to 100
# [19] = Preemergence, 31 g ai/ha, scale 0 to 100, 0 is no effect and 100 is complete control
smiles,measurement,setting,value
O=C1NCC(c2cccc(OC(F)F)c2)C1C(=O)Nc1ccc(F)c(F)c1F (centres unmarked) [Compound 325],"Plant response rating, Ragweed",[1]; [13],10
same,"Plant response rating, Ragweed",[1]; [14],10
same,"Plant response rating, Ragweed",[1]; [15],25
same,"Plant response rating, Ragweed",[1]; [16],35
same,Ragweed plant response rating,[1]; [17],60
same,"Plant response rating, Ragweed",[1]; [18],80
same,"Plant response rating, Blackgrass",[2]; [13],0
same,"Plant response rating, Blackgrass",[2]; [14],0
same,"Plant response rating, Blackgrass",[2]; [15],0
same,"Plant response rating, Blackgrass",[2]; [16],35
same,Blackgrass plant response rating,[2]; [19],5
same,Blackgrass plant response rating,[2]; [17],50
same,"Plant response rating, Blackgrass",[2]; [18],70
same,"Plant response rating (scale of 0 to 100), Blackgrass","[2]; Preemergence, 250 g ai/ha",85
same,"Plant response rating, Rice",[3],20
same,"Plant response rating, Wheat",[4]; [13],0
same,"Plant response rating, Wheat",[4]; [14],0
same,"Plant response rating, Wheat",[4]; [15],0
same,"Plant response rating, Wheat",[4]; [16],5
same,Wheat plant response rating,[4]; [17],40
same,"Plant response rating, Wheat",[4]; [18],65
same,"Plant response rating, Sedge, Umbrella",[5],40
same,"Plant response rating, Pigweed",[6]; [13],40
same,"Plant response rating, Pigweed",[6]; [14],55
same,"Plant response rating, Pigweed",[6]; [15],50
same,"Plant response rating, Pigweed",[6]; [16],65
same,Pigweed plant response rating,[6]; [19],65
same,Pigweed plant response rating,[6]; [17],65
same,"Plant response rating, Pigweed",[6]; [18],75
same,"Plant response rating, Johnsongrass",[7]; [13],0
same,"Plant response rating, Johnsongrass",[7]; [14],0
same,"Plant response rating, Johnsongrass",[7]; [15],0
same,"Plant response rating, Johnsongrass",[7]; [16],0
same,Johnsongrass plant response rating,[7]; [19],20
same,Johnsongrass plant response rating,[7]; [17],35
same,"Plant response rating, Johnsongrass",[7]; [18],75
same,"Plant response rating (scale of 0 to 100), Johnsongrass","[7]; Preemergence, 250 g ai/ha",75
same,"Plant response rating, Wheat","[8]; 125 g ai/ha, visual rating on 0 to 100 scale (0 no effect, 100 complete control), approx. 10 days",60
same,"Plant response rating, Wheat","[8]; 500 g ai/ha, 0 to 100 scale (0 no effect, 100 complete control)",80
same,"Plant response rating, Velvetleaf",[9]; [13],0
same,"Plant response rating, Velvetleaf",[9]; [14],15
same,"Plant response rating, Velvetleaf",[9]; [15],20
same,"Plant response rating, Velvetleaf",[9]; [16],40
same,Velvetleaf plant response rating,[9]; [17],35
same,"Plant response rating, Velvetleaf",[9]; [18],55
same,"Plant response rating, Barnyardgrass",[10],70
same,"Plant response rating, Crabgrass, Large",[11]; [13],55
same,"Plant response rating, Crabgrass, Large",[11]; [14],65
same,"Plant response rating, Crabgrass, Large",[11]; [15],65
same,"Plant response rating, Crabgrass, Large",[11]; [16],85
same,"Crabgrass, Large plant response rating",[11]; [19],95
same,"Crabgrass, Large plant response rating",[11]; [17],95
same,"Plant response rating, Crabgrass, Large",[11]; [18],95
same,"Plant response rating (scale of 0 to 100), Crabgrass, Large","[11]; Preemergence, 250 g ai/ha",100
same,"Plant response rating, Oilseed Rape",[12]; [13],0
same,"Plant response rating, Oilseed Rape",[12]; [14],0
same,"Plant response rating, Oilseed Rape",[12]; [15],50
same,"Plant response rating, Oilseed Rape",[12]; [16],60
same,Oilseed Rape plant response rating,[12]; [19],0
same,Oilseed Rape plant response rating,[12]; [17],65
same,"Plant response rating, Oilseed Rape",[12]; [18],85
same,"Plant response rating (scale of 0 to 100), Oilseed Rape","[12]; Preemergence, 250 g ai/ha",90
